The values that follow come from US5589506A, “Stilbene derivative and stilbene analog derivative, and use thereof” (Morinaga Milk Industry Co., Ltd., priority 1993, dated 1996).

One test deals with T1, 12-lipoxygenase (Rattus norvegicus, UniProt F1LQ70).
T1 construct: The pelleted platelets were rinsed twice with a washing buffer; from tissue; host or cells: platelets of Sprague Dawley male rat (sonicate, 100,000 x g supernatant)
T1 sequence (F1LQ70 1-663): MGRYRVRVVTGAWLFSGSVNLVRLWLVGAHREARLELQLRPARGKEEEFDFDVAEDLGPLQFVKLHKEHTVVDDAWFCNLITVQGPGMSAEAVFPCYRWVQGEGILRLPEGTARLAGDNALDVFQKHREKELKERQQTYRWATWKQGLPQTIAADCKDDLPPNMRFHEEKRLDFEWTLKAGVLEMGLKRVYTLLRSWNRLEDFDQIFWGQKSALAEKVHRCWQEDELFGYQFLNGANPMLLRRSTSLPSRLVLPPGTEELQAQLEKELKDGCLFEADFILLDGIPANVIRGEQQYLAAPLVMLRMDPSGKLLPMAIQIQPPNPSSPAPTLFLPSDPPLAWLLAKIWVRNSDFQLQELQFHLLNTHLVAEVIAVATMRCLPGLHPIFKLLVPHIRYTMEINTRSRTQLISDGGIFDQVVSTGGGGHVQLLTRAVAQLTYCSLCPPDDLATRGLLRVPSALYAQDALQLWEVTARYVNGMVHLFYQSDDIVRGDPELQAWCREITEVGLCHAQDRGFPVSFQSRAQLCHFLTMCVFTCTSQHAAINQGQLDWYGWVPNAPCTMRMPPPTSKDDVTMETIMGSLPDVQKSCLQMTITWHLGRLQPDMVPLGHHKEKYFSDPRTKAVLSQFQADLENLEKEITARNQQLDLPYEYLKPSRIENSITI
Kind of test: 12-lipoxygenase inhibition assay (rat platelet enzyme solution). The class given is biochemical, Sprague Dawley male rat. Conditions: for inhibition at 1 µM: 10^-6 (mole concentration); for inhibition at 0.1 µM: 10^-7 (mole concentration). How it is done: The test was performed to examine inhibitory effect of various compounds on the 12-lipoxyganase activity.
1) Preparation of Enzyme Solution
A Sprague Dawley male rat was anesthetized with ether and bled from abdominal aorta using a syringe filled with about one-tenth volume of 3.8% sodium citrate. Blood was centrifuged at 180×g for 15 minutes at room temperature to pellet sanguineous platelet blood plasma. The resultant supernatant was again centrifuged at 1800×g for 10 minutes at 4° C. The pelleted platelets were rinsed twice with a washing buffer (50 mM Tris-hydrochloric acid buffer containing 154 mM sodium chloride and 2 mM EDTA, pH: 7.4). The platelets were then suspended in one-twentieth volume of a resuspension buffer (50 mM Tris-hydrochloric acid buffer containing 154 mM sodium chloride and 5.5 mM glucose, pH: 7.4). The platelets were then sonicated at 4° C. and centrifuged at 100,000×g for 30 minutes to obtain a supernatant as a 12-lipoxgenaseenzyme solution.
2) Procedure for 12-lipoxgenase inhibition assay
The enzyme solution described above was diluted with the resuspension buffer above mentioned to prepare an assay solution so as to include about 2 mU/ml of 12-lipoxygenase. […] The resultant mixture was incubated at 37° C. for 5 minutes. Subsequently, 3 μl of a 2.5 mM arachidonic acid solution in ethanol was added to incubate with for another 5 minutes at 37° C., then the reaction was ceased by the addition of 600 μl of methanol. After being centrifuged at 10,000×g for 5 minutes, 12-hydroxyeicosatetraenoic acid recovered in the supernatant was separated with a reverse phase high-performance liquid chromatography equipped with a […] the activity of 12 lipoxygenase.
The enzyme solution was prepared according to the same manner as in Test Example 1.
It was prepared according to the same procedure as in Test Example 1.
Measurement was performed according to the same procedure as in Test Example 1.
The measurement was performed according to the same procedure as in Test Example 1.

The target in a further test is T2, 5-lipoxygenase (Rattus norvegicus, UniProt P12527).
T2 construct: Cultured cells were collected and washed twice; host or cells: RBL-1 rat basophilic leukemia cells (sonicate, 10,000 x g supernatant)
T2 sequence (P12527 1-673): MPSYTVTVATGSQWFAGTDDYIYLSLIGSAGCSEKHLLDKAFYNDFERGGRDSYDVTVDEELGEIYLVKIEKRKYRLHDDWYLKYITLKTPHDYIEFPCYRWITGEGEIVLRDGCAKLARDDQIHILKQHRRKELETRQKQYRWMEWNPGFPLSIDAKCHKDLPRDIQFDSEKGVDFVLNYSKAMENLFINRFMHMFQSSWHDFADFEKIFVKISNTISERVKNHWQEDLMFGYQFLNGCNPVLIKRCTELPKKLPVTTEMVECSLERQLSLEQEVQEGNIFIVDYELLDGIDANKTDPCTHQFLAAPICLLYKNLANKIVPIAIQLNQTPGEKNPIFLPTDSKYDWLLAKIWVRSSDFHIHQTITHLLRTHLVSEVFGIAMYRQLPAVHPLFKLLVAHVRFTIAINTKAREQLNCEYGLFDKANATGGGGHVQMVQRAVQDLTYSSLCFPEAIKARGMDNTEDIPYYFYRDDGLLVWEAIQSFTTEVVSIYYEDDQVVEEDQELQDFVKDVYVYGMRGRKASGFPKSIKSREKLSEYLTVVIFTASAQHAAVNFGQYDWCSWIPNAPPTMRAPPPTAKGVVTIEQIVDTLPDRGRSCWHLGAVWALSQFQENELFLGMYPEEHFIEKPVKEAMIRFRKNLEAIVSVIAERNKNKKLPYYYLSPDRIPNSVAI
In words: 5-lipoxygenase inhibition assay (rat basophilic leukemia cell RBL-1 enzyme solution). The class given is biochemical. Conditions: Table 3; read-out: IC50 values of 5-lipoxygenase (mole). How it is done:
The test was carried out to examine the selectivity toward 12-lipoxgenase of the compounds of the first embodiment in the present invention.
i) Preparation of 5-lipoxgenase enzyme solution
Rat basophilic leukemia cells (RBL-1, ATCC CRL1378) were cultured in Dulbecco modified Eagle's medium containing 10% new-born bovine serum.
Cultured cells were collected and washed twice with a 50 mM Tris-buffered saline (containing 154 mM sodium chloride, pH: 7.4, hereinafter described as TBS). The cell suspension (4×10^7 cells/ml) was then sonicated and centrifuged at 10,000×g for 10 minutes.
The resultant supernatant was used to prepare an assay solution.
i) Procedure for 5-lipoxgenase inhibition assay
To an aliquot (15 μl) of the enzyme solution (40 mU/ml equivalent) was added 185 μl of TBS, 50 μl of a 2 mM adenosine triphosphate in TBS, 50 μl of a 12 mM calcium chloride in TBS, 1 μl of a 3 mM indomethacin in ethanol solution, 1 μl of an aqueous 300 mM reduced glutathione solution, and 3 μl of varied concentrated test compounds solution in ethanol. The resultant mixture was incubated at 37° C. for 5 minutes. Subsequently, 3 μl of a 2.5 mM arachidonic acid solution in ethanol was added to incubate the mixture for 2 minutes at 37° C. The reaction was ceased by the addition of 600 μl of methanol After being centrifuged at 10,000×g for 5 minutes, 5-hydroxyeicosatetraenoic acid recovered in the supernatant was separated with a reverse phase high-performance liquid chromatography equipped with a C-18 column and measured the absorption of diene at 234 nm to quantify the activity of the enzyme. […]
The enzyme activities of the compounds of the present invention prepared according to the same procedure as in Examples 54-58 to be described later and baicalein as sample substances at varied concentrations were measured according to the above-mentioned method, and mole concentrations showing 50% 12-lipoxgenase and 5-lipoxgenase inhibition ratios (hereinafter may be described as IC50 values) were obtained from the measured values of the sample substances.

Setting [1] is: Table 3, read-out: IC50 values of 12-lipoxygenase (mole).
Where [2] appears, read: 10^-5 (mole concentration), 10 µM.
Where [3] appears, read: 10^-5 (mole concentration), read-out: 12-Lipoxygenase inhibition ratio (%).
The mark [4] stands for this setting: read-out: 12-Lipoxygenase inhibition ratio (%).
The mark [5] stands for this setting: Table 2, read-out: 12-Lipoxygenase IC50 values.
Setting [6] is: Table 12, deacylated compounds, read-out: 12-Lipoxygenase inhibitory effect of deacylated compounds (IC50 values).

Like-named read-outs stand apart in the source and are kept apart here. Some results are limits rather than exact numbers.

A word on the IC50: it is the concentration that inhibits the measured activity by half. Regarding `Cc1cccc(C=C(C#N)c2ccc(O)c(O)c2)c1` [Bz. 25, α-cyano-3'-methyl-3,4-dihydroxystilbene], the IC50 was determined as 7 nM on 12-lipoxygenase (setting [1]) and 44 nM at 5-lipoxygenase.

As for `N#CC(=Cc1cccc(O)c1)c1ccc(Cl)cc1` [Comp. Ex. 1, reference compound], at 12-lipoxygenase (setting [2]), the “12-Lipoxygenase inhibition ratio (%)” value was determined as 7%. In addition, on 12-lipoxygenase (setting [3]), the inhibition at 10 µM was below 10%. In addition, on 12-lipoxygenase (setting [4]), the inhibition at 1 µM amounted to 1% and the inhibition at 0.1 µM turned out to be 0%.

In the case of `N#CC(=Cc1ccc(O)cc1)c1ccc(Cl)cc1` [Comp. Ex. 2, reference compound], the “12-Lipoxygenase inhibition ratio (%)” value on 12-lipoxygenase (setting [2]) turned out to be 10%. In addition, the inhibition at 10 µM at 12-lipoxygenase (setting [3]) is below 10%. Further, on 12-lipoxygenase (setting [4]), the inhibition at 1 µM was determined as 2% and the inhibition at 0.1 µM stood at 5%.

Regarding `COc1ccc(C=C(C#N)c2ccc(Cl)cc2)cc1O` [Comp. Ex. 3, reference compound], the “12-Lipoxygenase inhibition ratio (%)” value at 12-lipoxygenase (setting [2]) is listed as 10%. In addition, the inhibition at 10 µM at 12-lipoxygenase (setting [3]) is below 10%. At 12-lipoxygenase (setting [4]), the inhibition at 1 µM was 1% and the inhibition at 0.1 µM is 0%.

On to `COc1cc(C=C(C#N)c2ccc(Cl)cc2)ccc1O` [Comp. Ex. 4, reference compound], for which, on 12-lipoxygenase (setting [2]), the “12-Lipoxygenase inhibition ratio (%)” value was 2%. In addition, on 12-lipoxygenase (setting [4]), the inhibition at 1 µM is 0% and the inhibition at 0.1 µM came to 0%.

In the case of `Oc1ccc(/C=C/c2ccccc2)cc1O` [Comp. Ex. 5, reference compound], on 12-lipoxygenase, the “12-lipoxygenase inhibitory effect (in words)” value is “remarkably poor compared with that of the compound (Example 1)”. Also, the IC50 at 12-lipoxygenase (setting [5]) is 1200 nM.

`CCOC(=O)C(=Cc1ccc(O)c(O)c1)c1ccccc1` [Comp. Ex. 6, reference compound]: the “12-lipoxygenase inhibitory effect (in words)” value on 12-lipoxygenase was “remarkably poor compared with that of the compound (Example 1)”. Also, the IC50 at 12-lipoxygenase (setting [5]) was found to be 160 nM.

For the compound `N#CC(=Cc1ccc(O)c(O)c1)c1ccc(O)cc1` [Comp. Ex. 7, reference compound], the IC50 at 12-lipoxygenase (setting [5]) came to 230 nM.

In the case of `N#CC(=Cc1ccc(O)c(O)c1)c1ccc(O)c(O)c1` [Comp. Ex. 8, reference compound], the IC50 on 12-lipoxygenase (setting [5]) came to 300 nM.

In the case of `N#CC(=Cc1ccc(C(=O)O)cc1)c1ccc(O)c(O)c1` [Comp. Ex. 9, reference compound], on 12-lipoxygenase (setting [5]), the IC50 came out at 5000 nM.

For the compound `N#CC(=Cc1ccc(O)c(O)c1)c1ccc(Cl)cc1` [Ex. 1, α-cyano-4-chloro-3',4'-dihydroxystilbene], the inhibition at 10 µM at 12-lipoxygenase (setting [3]) was 97%. For the same compound, the inhibition at 1 µM at 12-lipoxygenase (setting [4]) amounted to 97%. For the same compound, the inhibition at 0.1 µM at 12-lipoxygenase (setting [4]) is 98%. Further, the “12-Lipoxygenase inhibition ratio (%)” value on 12-lipoxygenase (10^-8 (mole concentration), 0.01 µM) was found to be 73%; at 12-lipoxygenase (10^-8 (mole concentration), 0.01 µM, listed as Example 1, 0.01 µM) it was 73%. Also, at 12-lipoxygenase (10^-9 (mole concentration), read-out: 12-Lipoxygenase inhibition ratio (%)), the inhibition at 0.001 µM worked out at 1%. Also, the IC50 at 12-lipoxygenase (setting [5]) was 4.2 nM; on 12-lipoxygenase (setting [1]), 4.2 nM; on 12-lipoxygenase (setting [6]), 4.2 nM; on 5-lipoxygenase, 38 nM.

With `N#CC(=Cc1ccc(Cl)cc1)c1ccc(O)c(O)c1` [Ex. 2, α-cyano-4'-chloro-3,4-dihydroxystilbene], the IC50 on 12-lipoxygenase (setting [1]) amounted to 1.8 nM; at 12-lipoxygenase (setting [6]), 1.8 nM; at 5-lipoxygenase, 56 nM.

On to `N#CC(=Cc1ccc(O)c(O)c1)c1ccc(F)cc1` [Ex. 3], for which the IC50 was found to be 4.8 nM on 12-lipoxygenase (setting [1]) and 94 nM on 5-lipoxygenase.

Turning to `N#CC(=Cc1ccc(O)c(O)c1)c1ccc(Br)cc1` [Ex. 4], the IC50 was 3.6 nM at 12-lipoxygenase (setting [1]) and 15 nM on 5-lipoxygenase.

As to `N#CC(=Cc1ccc(O)c(O)c1)c1ccc(I)cc1` [Ex. 5, α-cyano-4-iodo-3',4'-dihydroxystilbene], the IC50 was 5.4 nM at 12-lipoxygenase (setting [1]), 5.4 nM at 12-lipoxygenase (setting [6]) and 20 nM at 5-lipoxygenase.

`Cc1ccc(C(C#N)=Cc2ccc(O)c(O)c2)cc1` [Ex. 6]: the results for the IC50 on 12-lipoxygenase (setting [1]) and on 5-lipoxygenase were 4.5 nM and 48 nM, respectively.

As to `N#CC(=Cc1ccc(O)c(O)c1)c1ccccc1` [Ex. 9], the IC50 at 12-lipoxygenase (setting [1]) came to 15 nM; at 5-lipoxygenase, 110 nM.

Regarding `CCc1ccc(C(C#N)=Cc2ccc(O)c(O)c2)cc1` [Ex. 11], the IC50 at 12-lipoxygenase (setting [1]) was determined as 5.8 nM; on 5-lipoxygenase, 46 nM.

For `N#CC(=Cc1ccc(O)c(O)c1)c1cc(Br)cs1` [Ex. 13, α-(3,4-dihydroxybenzylidene)-4-bromothiophene-2-acetonitrile], the IC50 on 12-lipoxygenase (setting [1]) was determined as 3 nM; at 12-lipoxygenase (setting [6]) it was 3 nM; at 5-lipoxygenase, 36 nM.

With `N#CC(=Cc1ccc(O)c(O)c1)c1ccc(Br)s1` [Ex. 14], the IC50 at 12-lipoxygenase (setting [1]) worked out at 3.6 nM; on 5-lipoxygenase, 26 nM.

For the compound `N#CC(=Cc1cc(O)c(O)c(O)c1)c1ccc(Cl)cc1` [Ex. 15, α-cyano-4-chloro-3',4',5'-trihydroxystilbene], the IC50 on 12-lipoxygenase (setting [1]) was found to be 14 nM; at 5-lipoxygenase, 56 nM.

`N#CC(=Cc1ccc(O)c(O)c1)c1ccc(C#N)cc1` [Ex. 16]: the IC50 at 12-lipoxygenase (setting [1]) is 28 nM; at 5-lipoxygenase it was 100 nM.

Turning to `COc1ccc(C(C#N)=Cc2ccc(O)c(O)c2)cc1` [Formula 55b, α-cyano-4-methoxy-3',4'-dihydroxystilbene], on 12-lipoxygenase (setting [6]), the IC50 was 6 nM.
